Laboratory results published in patent US10111875B2, “Pyrrolopyrimidine compounds and uses thereof” (HUTCHISON MEDIPHARMA LIMITED, priority 2010, dated 2018).

Each compound was assayed against Recombinant human JAK1 catalytic domain (Homo sapiens (Human), UniProt P23458) (assay: JAK1 kinase assay (Z'-LYTE Tyr 6 Peptide)). Conditions: JAK1 kinase assay, 0.3 uM concentration; read-out: inhibition percentage (IR %).
Assay type: biochemical
Method: JAK1/2/3 kinase assay are performed in vitro using Kit-Tyr 6 Peptide (Invitrogen, Cat. No. PV4122). TYK2 kinase assay are performed in vitro using Z′-LYTE™ Kinase Assay Kit-Tyr 3 Peptide (Invitrogen, Cat. No. PV3192). […] All compounds are initially tested at 8 different concentrations (1 μM down to 0.0003 μM) using a 1:3 serial dilution scheme.

Sequence of Recombinant human JAK1 catalytic domain (P23458 875-1153): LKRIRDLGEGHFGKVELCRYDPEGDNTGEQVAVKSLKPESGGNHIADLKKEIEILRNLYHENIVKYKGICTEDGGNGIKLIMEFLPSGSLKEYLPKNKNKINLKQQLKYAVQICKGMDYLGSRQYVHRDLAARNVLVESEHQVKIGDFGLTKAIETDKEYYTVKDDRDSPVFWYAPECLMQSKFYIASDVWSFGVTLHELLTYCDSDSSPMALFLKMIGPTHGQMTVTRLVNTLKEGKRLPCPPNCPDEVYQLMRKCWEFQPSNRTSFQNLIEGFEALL

SMILES | inhibition at 0.3 µM
N#Cc1cnc(N[C@@H]2CCN(c3ncnc4[nH]ccc34)C2)c([N+](=O)[O-])c1 [Compound 97] | 50 to 100%
CCN(c1ccc(S(C)(=O)=O)cn1)[C@@H]1CCN(c2ncnc3[nH]ccc23)C1 [Compound 44] | 20 to 50%
N#CCN(C1CCC1)[C@@H]1CCN(c2ncnc3[nH]ccc23)C1 [Compound 52] | 50 to 100%
CN(c1ccc(C#N)c(C#N)c1)[C@@H]1CCN(c2ncnc3[nH]ccc23)C1 [Compound 113] | 20 to 50%
CN(c1ncc(Br)cn1)[C@@H]1CCN(c2ncnc3[nH]ccc23)C1 [Compound 94] | 50 to 100%
CN(c1ccc(C#N)cc1-c1cccc(C#N)c1)[C@@H]1CCN(c2ncnc3[nH]ccc23)C1 [Compound 148] | 20 to 50%
CCN(c1c(F)cc(C#N)cc1F)[C@@H]1CCN(c2ncnc3[nH]ccc23)C1 [Compound 132] | 50 to 100%
N#Cc1ccc(N[C@@H]2CCN(c3ncnc4[nH]ccc34)C2)nc1 [Compound 81] | 50 to 100%
CN(c1ccc(C(=O)N[C@@H]2CCC[C@H]2O)cn1)[C@@H]1CCN(c2ncnc3[nH]ccc23)C1 [Compound 194] | 20 to 50%
CCCN(c1ccc(C#N)cn1)[C@@H]1CCN(c2ncnc3[nH]ccc23)C1 [Compound 98] | 50 to 100%
CN(c1ccc(-c2cccs2)cn1)[C@@H]1CCN(c2ncnc3[nH]ccc23)C1 [Compound 147] | 50 to 100%
CCS(=O)(=O)N(C)[C@@H]1CCN(c2ncnc3[nH]ccc23)C1 [Compound 48] | 50 to 100%
C=CCN(C1CCCC1)[C@@H]1CCN(c2ncnc3[nH]ccc23)C1 [Compound 40] | 50 to 100%
CN([C@@H]1CCN(c2ncnc3[nH]ccc23)C1)S(=O)(=O)c1ccc([N+](=O)[O-])cc1 [Compound 11] | 20 to 50%
CN(c1ccc(C#N)cc1Br)[C@@H]1CCN(c2ncnc3[nH]ccc23)C1 [Compound 115] | 50 to 100%
CN(C(=O)Nc1ccc(C#N)cc1)[C@@H]1CCN(c2ncnc3[nH]ccc23)C1 [Compound 17] | 50 to 100%
C[C@H](NC(=O)c1ccc(N(C)[C@@H]2CCN(c3ncnc4[nH]ccc34)C2)c(F)c1)c1ccccc1 [Compound 182] | 50 to 100%
C#CCN(c1ccc(S(C)(=O)=O)cn1)[C@@H]1CCN(c2ncnc3[nH]ccc23)C1 [Compound 58] | 20 to 50%
CN(c1ccncn1)[C@@H]1CCN(c2ncnc3[nH]ccc23)C1 [Compound 154, (R)—N-(1-(7H-pyrrolo[2,3-d]pyrimidin-4-yl)pyrrolidin-3-yl)-N-methylpyrimidin-4-amine] | 50 to 100%

Next, values leading:

inhibition at 0.3 µM | SMILES
20 to 50% | CN(c1ccc(C(=O)N[C@@H]2c3ccccc3C[C@@H]2O)cc1F)[C@@H]1CCN(c2ncnc3[nH]ccc23)C1 [Compound 203]
50 to 100% | CN(c1ccc(NS(=O)(=O)Cc2cccc(F)c2)cn1)[C@@H]1CCN(c2ncnc3[nH]ccc23)C1 [Compound 220]
50 to 100% | CN(c1ccc(S(=O)(=O)NCC2CC2)cn1)[C@@H]1CCN(c2ncnc3[nH]ccc23)C1 [Compound 235]
50 to 100% | CN(c1ccc(S(=O)(=O)Nc2ccc(F)cc2)cn1)[C@@H]1CCN(c2ncnc3[nH]ccc23)C1 [Compound 253]
20 to 50% | CN(c1ccc(C(=O)Nc2cccnc2)cn1)[C@@H]1CCN(c2ncnc3[nH]ccc23)C1 [Compound 198]
50 to 100% | COCC1CCCN1S(=O)(=O)c1ccc(N(C)[C@@H]2CCN(c3ncnc4[nH]ccc34)C2)nc1 (stereo partly shown) [Compound 249]
50 to 100% | CN(c1ccc(S(=O)(=O)NC2CC2)cn1)[C@@H]1CCN(c2ncnc3[nH]ccc23)C1 [Compound 236]
50 to 100% | CN(c1ccc(C(=O)NC(CO)c2ccccc2Cl)cc1F)[C@@H]1CCN(c2ncnc3[nH]ccc23)C1 (stereo partly shown) [Compound 207]
20 to 50% | CN(c1ccc(NS(=O)(=O)Cc2ccc(F)cc2)cn1)[C@@H]1CCN(c2ncnc3[nH]ccc23)C1 [Compound 221]
